Assay [1] relates to gel-filtered platelets aggregation induced by thrombin. Put plainly: Inhibition of thrombin-induced gel-filtered platelet aggregation assay. In kind it is cell-based. Conditions: Homo sapiens. On the procedure: (§1) In Vitro Agonist Platelet Aggregation Assay/Inhibition of Thrombin-induced Gel-filtered Platelet Aggregation Assay
(§2) The percentage of platelet aggregation is calculated as an increase in light transmission of compound-treated platelet concentrate vs. control-treated platelet concentrate. Human blood is obtained from drug free, normal donors into tubes containing 0.13 M sodium citrate. Platelet rich plasma (PRP) is collected by centrifugation of whole blood at 200×g for 10 min at 25° C. The PRP (5 mL) is gel filtered through Sepharose 2B (bed volume 50 mL), and the platelet count is adjusted to 2×10^7 platelets per sample. The following constituents are added to a siliconized cuvette: concentrated platelet filtrate and Tyrode's buffer (0.14 M NaCl, 0.0027 M KCl, 0.012 M NaHCO3, 0.76 mM Na2HPO4, 0.0055 M glucose, 2 mg/mL BSA and 5.0 mM HEPES @ pH 7.4) in an amount equal to 350 l, 50 l of 20 mM calcium and 50 l of the test compound. Aggregation is monitored in a BIODATA aggregometer for the 3 min following the addition of agonist (thrombin 50 l of 1 unit/mL).

A further assay concerns platelet aggregation. Description: In vitro agonist platelet aggregation assay (gel-filtered platelets). It counts as cell-based, Human. The protocol: as §1, §2
Where [2] appears, read: gel-filtered platelets aggregation induced by thrombin, Table 2, read-out: IC50 (M), inhibition of platelet aggregation.
Setting [3] is: agonist activity, human gel-filtered platelets, Table 1, read-out: EC50 (M), EC50 values for platelet aggregation.
The mark [4] stands for this setting: Homo sapiens, read-out: EC50 (M), EC50 values for platelet aggregation.

Like-named read-outs stand apart in the source and are kept apart here. Starred links: 1 amine or outer side, 2 acyl side, 3 side chain; linkers in the order of their positions; H or OH if unused. Non-standard residues stand in square brackets, D forms with d. Residues, ends and D or L forms follow the SMILES beside them. ξ: configuration not given here. Triazole(1,2,4-3-CO,5-NH) = O=C(c1n[nH]c(N[*:1])n1)[*:2]; Phe(4-F) = N[CH](Cc1ccc(F)cc1)C(=O)O; ξNip = O=C(C1CCCN([*:1])C1)[*:2]; Cha = N[CH](CC1CCCCC1)C(=O)O

Usually IC50 stands for the concentration needed to halve the response being measured. On to `N=C(N)NCCC[C@H](NC(=O)[C@H](CC1CCCCC1)NS(=O)(=O)c1ccc2ccccc2c1)C(=O)N[C@@H](Cc1ccccc1)C(N)=O` [Compound 43], for which the IC50 in assay [1] (setting [2]) stood at 1.25e-05 M.
What is called EC50 is the concentration giving half of the maximal effect. `N=C(N)NCCCC(NC(=O)C(CC1CCCCC1)NC(=O)c1n[nH]c(NC(=O)C(F)=Cc2ccccc2)n1)C(=O)NC(Cc1ccccc1)C(N)=O` (centres unmarked) [Compound 12]: in the assay with platelet aggregation (setting [3]), the EC50 was 1.72e-06 M.
On to `N=C(N)NCCCC(NC(=O)C(Cc1ccccc1)NC(=O)C(CCCNC(=N)N)NC(=O)C(CC1CCCCC1)NC(=O)c1n[nH]c(N)n1)C(N)=O` (centres unmarked) [Compound 9] ({Triazole(1,2,4-3-CO,5-NH)}-[Cha]RFR-NH2; configuration not given here), for which the concentration for a half-maximal effect (EC50) in the assay with platelet aggregation (setting [4]) amounted to 1.21e-06 M.
Consider `N=C(N)NCCCC(NC(=O)C(CC1CCCCC1)NC(=O)c1n[nH]c(NC(=O)C=Cc2ccc(F)cc2)n1)C(=O)NC(Cc1ccccc1)C(N)=O` (centres unmarked) [Compound 26], for which the EC50 in the assay with platelet aggregation (setting [4]) turned out to be 7.9e-06 M. For the same molecule, the IC50 in assay [1] (read-out: IC50 (M), inhibition of platelet aggregation) was determined as 1.3e-05 M.
With `Cc1c(S(=O)(=O)N[C@@H](CC2CCCCC2)C(=O)N[C@@H](CCCNC(=N)N)C(=O)N[C@@H](Cc2ccccc2)C(N)=O)sc2ccc(Cl)cc12` [Compound 36], the IC50 in assay [1] (setting [2]) came to 8.4e-06 M.
As for `N=C(N)NCCCC(NC(=O)C(CC1CCCCC1)NC(=O)c1n[nH]c(NC(=O)C(=Cc2ccccc2)c2ccccc2)n1)C(=O)NC(Cc1ccccc1)C(N)=O` (centres unmarked) [Compound 34], the 50% inhibitory concentration (IC50) in assay [1] (setting [2]) amounted to 1.9e-05 M.
`N=C(N)NCCC[C@H](NC(=O)[C@H](CC1CCCCC1)NC(=O)c1ccc2[nH]cnc2c1)C(=O)N[C@@H](Cc1ccccc1)C(N)=O` [Compound 41]: in the assay with platelet aggregation (setting [3]), the EC50 came to 4e-06 M.
Take `N=C(N)NCCC[C@H](NC(=O)[C@H](CC1CCCCC1)NC(=O)c1n[nH]c(N)n1)C(=O)N[C@@H](Cc1ccccc1)C(N)=O` [Compound 1]: the EC50 in the assay on platelet aggregation (setting [3]) is 7.5e-07 M.
The same measure, in the same setting: then `N=C(N)NCCCC(NC(=O)C(CC1CCCCC1)NC(=O)C1CCCN(C(=O)C(N)Cc2ccc(F)cc2)C1)C(=O)NC(Cc1ccccc1)C(N)=O` (centres unmarked) [Compound 32] (H-[Phe(4-F)][ξNip][Cha]RF-NH2; configuration not given here), with 2.6e-05 M.
As for `N=C(N)NCCC[C@H](NC(=O)[C@H](CC1CCCCC1)NC(=O)c1cc2ccccc2s1)C(=O)N[C@@H](Cc1ccccc1)C(N)=O` [Compound 37], the IC50 in assay [1] (setting [2]) amounted to 2.1e-05 M.

Values taken from US7312306B2, “Substituted heterocyclic acyl-tripeptides useful as thrombin receptor modulators” (Ortho-McNeil Pharmaceutical, Inc., priority 1998, dated 2007).
